Test results from patent publication US20070117858A1, “SUBSTITUTED 5-HETEROARYL-1-PHENYL-PYRAZOLE CANNABINOID MODULATORS” (priority 2005, published 2007).
Where two headings read alike, the source gives them in different places.

Key:
[1] = target: T1, human CB1 receptor (Homo sapiens, UniProt P21554); assay: Cannabinoid CB1 receptor binding assay ([3H]-CP-55,940 displacement, SK-N-MC cell membranes); conditions: for inhibition at 0.2 µM: 1.5 h, read-out: Cannabinoid CB1 Receptor Binding, percent inhibition
T1 construct: expressed in transfected cells; host or cells: SK-N-MC cells, stably transfected with pcDNA3 CB-1 (human); semi-purified membrane pellet
T1 sequence (P21554 whole entry): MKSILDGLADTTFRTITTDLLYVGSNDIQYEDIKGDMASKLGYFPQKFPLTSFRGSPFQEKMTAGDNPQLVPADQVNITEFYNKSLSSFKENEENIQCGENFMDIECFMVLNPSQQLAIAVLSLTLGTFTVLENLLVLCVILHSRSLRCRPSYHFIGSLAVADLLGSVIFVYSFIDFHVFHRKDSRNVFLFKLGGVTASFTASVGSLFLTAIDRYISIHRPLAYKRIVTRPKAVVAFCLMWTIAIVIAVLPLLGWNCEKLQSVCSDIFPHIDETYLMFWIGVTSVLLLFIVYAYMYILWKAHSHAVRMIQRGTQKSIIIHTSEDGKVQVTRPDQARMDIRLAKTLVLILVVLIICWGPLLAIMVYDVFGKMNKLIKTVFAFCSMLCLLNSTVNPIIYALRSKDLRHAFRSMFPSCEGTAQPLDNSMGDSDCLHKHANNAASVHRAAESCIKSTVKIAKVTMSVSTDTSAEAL
Protocol: (§1) Binding Assay for CB1 or CB2 Agonists or Inverse Agonists
(§2) The human CB1 and CB2 receptors were stably expressed in SK-N-MC cells transfected with pcDNA3 CB-1 (human) or pcDNA3 CB-2 (human). The cells were grown in T-180 cell culture flasks under standard cell culture conditions at 37° C. in a 5% CO2 atmosphere. The cells were harvested by trysinization and homogenized in a homogenization buffer (10 mM Tris, 0.2 mM MgCl2, 5 mM KCl, with protease inhibitors aprotinin, leupeptin, pepstatin A and bacitracin) and centrifuged (2000 g). The supernatant was then centrifuged in 2M sucrose (31,300 g) to produce a semi-purified membrane pellet. The pellet was resuspended in homogenization and stored at −80° C.
(§3) On the day of the assay, the pellet was thawed on ice and diluted in assay buffer (50 mM Tris-HCl, 5 mM MgCl2, 2.5 mM EDTA, 0.5 mg/mL fatty acid free bovine serum albumin, pH 7.5). The diluted membrane pellet was added with buffer, either a test compound or vehicle standard and the radioligand […] (0.2 nM) to the wells of a 96-well polypropylene plate. Non-specific binding was measured in wells containing W1N 55,212 (10 uM). The plate was covered and incubated for 90 minutes at 30° C. The contents were then aspirated onto a Packard Unifilter GF/C filter bottom plate prewet with 0.5% polyethyleneimine. The wells of the polypropylene plate were rinsed and aspirated seven times with a 0.9% saline-0.5% Tween 20 solution. The Unifilter plate was dried, scintillation cocktail was added to each well and the counts representing binding were quantitated in a TopCount scintillation counter.
(§4) For compounds tested, an IC50 binding value was obtained from percent inhibition studies in which various test concentrations were used. The binding value was calculated by linear regression.
(§5) For compounds without an IC50 binding value, the percent inhibition (%) was obtained at a test concentration of 0.2 μM.

[2] = target: T2, human CB2 receptor (Homo sapiens, UniProt P34972); assay: Cannabinoid CB2 receptor binding assay ([3H]-CP-55,940 displacement, SK-N-MC cell membranes); conditions: 1.5 h; test concentration of 0.2 μM; radioligand CP-55,940 0.2 nM; read-out: Cannabinoid CB2 Receptor Binding, percent inhibition
T2 construct: expressed in transfected cells; host or cells: SK-N-MC cells, stably transfected with pcDNA3 CB-2 (human); semi-purified membrane pellet
T2 sequence (P34972 whole entry): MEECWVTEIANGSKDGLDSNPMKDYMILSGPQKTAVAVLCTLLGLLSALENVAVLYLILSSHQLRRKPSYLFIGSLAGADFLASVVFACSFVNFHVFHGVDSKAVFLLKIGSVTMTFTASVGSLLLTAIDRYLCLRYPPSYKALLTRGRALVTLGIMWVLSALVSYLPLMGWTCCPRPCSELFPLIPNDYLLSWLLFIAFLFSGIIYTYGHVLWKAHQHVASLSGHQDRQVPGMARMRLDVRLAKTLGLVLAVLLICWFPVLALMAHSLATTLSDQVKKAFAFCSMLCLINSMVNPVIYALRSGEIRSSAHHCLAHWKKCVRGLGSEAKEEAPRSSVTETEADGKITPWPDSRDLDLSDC
Protocol: as §1, §2, §3, §4, §5

Row | Compound | inhibition at 0.2 µM [1] | inhibition at 0.2 µM [2] | IC50 [1] | IC50 ([1]; from percent inhibition studies at various test concentrations, calculated by linear regression, radioligand CP-55,940 0.2 nM, read-out: Cannabinoid CB1 Receptor Binding, IC50 binding value)
1 | CCc1c(C(=O)N[C@H](C)c2ccccc2)nn(-c2ccc(Cl)cc2Cl)c1-c1ccc(Br)s1 [Cpd 40, 5-(5-bromo-thiophen-2-yl)-1-(2,4-dichloro-phenyl)-4-ethyl-1H-pyrazole-3-carboxylic acid [(1R)-1-phenyl-ethyl]-amide] | 78% | 52% | – | –
2 | CCc1c(C(=O)N[C@@H](C)c2ccccn2)nn(-c2ccc(Cl)cc2Cl)c1-c1ccc(Br)s1 [Cpd 41, 5-(5-bromo-thiophen-2-yl)-1-(2,4-dichloro-phenyl)-4-ethyl-1H-pyrazole-3-carboxylic acid [(1S)-1-pyridin-2-yl-ethyl]-amide] | – | 45% | 15 nM | –
3 | CCc1c(C(=O)N[C@@H](C)c2ccccc2)nn(-c2ccc(Cl)cc2Cl)c1-c1ccc(Br)s1 [Cpd 42, 5-(5-bromo-thiophen-2-yl)-1-(2,4-dichloro-phenyl)-4-ethyl-1H-pyrazole-3-carboxylic acid [(1S)-1-phenyl-ethyl]-amide] | – | 38% | 11 nM | –
4 | CCc1c(C(=O)N[C@@H](C)C2CCCCC2)nn(-c2ccc(Cl)cc2Cl)c1-c1ccc(Br)s1 [Cpd 43, 5-(5-bromo-thiophen-2-yl)-1-(2,4-dichloro-phenyl)-4-ethyl-1H-pyrazole-3-carboxylic acid [(1S)-1-cyclohexyl-ethyl]-amide] | – | 39% | 8 nM | –
5 | Cc1c(C(=O)NN2CCCCC2)nn(-c2ccc(Cl)cc2Cl)c1-c1cc(Br)cs1 [Cpd 44, 5-(4-bromo-thiophen-2-yl)-1-(2,4-dichloro-phenyl)-4-methyl-1H-pyrazole-3-carboxylic acid piperidin-1-ylamide] | 74% | 53% | – | –
6 | Cc1c(C(=O)N2CCCCC2)nn(-c2ccc(Cl)cc2Cl)c1-c1cc(Br)cs1 [Cpd 45, [5-(4-bromo-thiophen-2-yl)-1-(2,4-dichloro-phenyl)-4-methyl-1H-pyrazol-3-yl]-piperidin-1-yl-methanone] | 33% | 12% | – | –
7 | Cc1c(C(=O)N[C@@H](C)c2ccccc2)nn(-c2ccc(Cl)cc2Cl)c1-c1cc(Br)cs1 [Cpd 46, 5-(4-bromo-thiophen-2-yl)-1-(2,4-dichloro-phenyl)-4-methyl-1H-pyrazole-3-carboxylic acid [(1S)-1-phenyl-ethyl]-amide] | 52% | 47% | – | –
8 | Cc1c(C(=O)N[C@@H](C)c2ccccn2)nn(-c2ccc(Cl)cc2Cl)c1-c1cc(Br)cs1 [Cpd 47, 5-(4-bromo-thiophen-2-yl)-1-(2,4-dichloro-phenyl)-4-methyl-1H-pyrazole-3-carboxylic acid [(1S)-1-pyridin-2-yl-ethyl]-amide] | 56% | 46% | – | –
9 | Cc1c(C(=O)N[C@@H](C)C2CCCCC2)nn(-c2ccc(Cl)cc2Cl)c1-c1cc(Br)cs1 [Cpd 48, 5-(4-bromo-thiophen-2-yl)-1-(2,4-dichloro-phenyl)-4-methyl-1H-pyrazole-3-carboxylic acid [(1S)-1-cyclohexyl-ethyl]-amide] | 60% | 49% | – | –
10 | Cc1c(C(=O)N[C@H](C)c2ccccc2)nn(-c2ccc(Cl)cc2Cl)c1-c1cc(Br)cs1 [Cpd 49, 5-(4-bromo-thiophen-2-yl)-1-(2,4-dichloro-phenyl)-4-methyl-1H-pyrazole-3-carboxylic acid [(1R)-1-phenyl-ethyl]-amide] | 76% | 63% | – | –
11 | CCc1c(C(=O)N2CCC(O)CC2)nn(-c2ccc(Cl)cc2Cl)c1-c1ccc(Br)s1 [Cpd 50, [5-(5-bromo-thiophen-2-yl)-1-(2,4-dichloro-phenyl)-4-ethyl-1H-pyrazol-3-yl]-(4-hydroxy-piperidin-1-yl)-methanone] | 28% | 17% | – | –
12 | CCc1c(C(=O)NN2CCC(O)CC2)nn(-c2ccc(Cl)cc2Cl)c1-c1ccc(Br)s1 [Cpd 51, 5-(5-bromo-thiophen-2-yl)-1-(2,4-dichloro-phenyl)-4-ethyl-1H-pyrazole-3-carboxylic acid (4-hydroxy-piperidin-1-yl)-amide] | 63% | 13% | – | –
13 | CCc1c(C(=O)N[N+]2(C)CCCCC2)nn(-c2ccc(Cl)cc2Cl)c1-c1ccc(Br)s1 [Cpd 52, 1-{[5-(5-bromo-thiophen-2-yl)-1-(2,4-dichloro-phenyl)-4-ethyl-1H-pyrazole-3-carbonyl]-amino}-1-methyl-piperidinium] | 51% | 0% | – | –
14 | Cc1ccc(-c2c(C)c(C(=O)NN3CCCCC3)nn2-c2ccc(Cl)cc2Cl)o1 [Cpd 53, 1-(2,4-dichloro-phenyl)-4-methyl-5-(5-methyl-furan-2-yl)-1H-pyrazole-3-carboxylic acid piperidin-1-ylamide] | 40% | 21% | – | –
15 | Cc1ccc(-c2c(C)c(C(=O)N[C@@H](C)c3ccccc3)nn2-c2ccc(Cl)cc2Cl)o1 [Cpd 54, 1-(2,4-dichloro-phenyl)-4-methyl-5-(5-methyl-furan-2-yl)-1H-pyrazole-3-carboxylic acid [(1S)-1-phenyl-ethyl]-amide] | – | 52% | – | 140 nM
16 | Cc1ccc(-c2c(C)c(C(=O)N[C@H](C)c3ccccc3)nn2-c2ccc(Cl)cc2Cl)o1 [Cpd 55, 1-(2,4-dichloro-phenyl)-4-methyl-5-(5-methyl-furan-2-yl)-1H-pyrazole-3-carboxylic acid [(1R)-1-phenyl-ethyl]-amide] | 58% | 30% | – | –
17 | Cc1ccc(-c2c(C)c(C(=O)N[C@H](C)c3ccccn3)nn2-c2ccc(Cl)cc2Cl)o1 [Cpd 56, 1-(2,4-dichloro-phenyl)-4-methyl-5-(5-methyl-furan-2-yl)-1H-pyrazole-3-carboxylic acid [(1R)-1-pyridin-2-yl-ethyl]-amide] | 41% | 26% | – | –
18 | Cc1ccc(-c2c(C)c(C(=O)N[C@H](C)C3CCCCC3)nn2-c2ccc(Cl)cc2Cl)o1 [Cpd 57, 1-(2,4-dichloro-phenyl)-4-methyl-5-(5-methyl-furan-2-yl)-1H-pyrazole-3-carboxylic acid [(1R)-1-cyclohexyl-ethyl]-amide] | 46% | 28% | – | –
